Data: article PMC9944328 (Nature Communications, 2023)
Values joined by “and” are separate entries in the source; they are usually repeats but may differ in a detail not shown here. Equal values may be shown once.

Biological target: SSTR2 (Homo sapiens, UniProt P30874)
Experiment: SSTRs Gi-mediated cAMP inhibition, GloSensor, HEK293, 5 μM forskolin, 15 min room temperature (SSTR2 wild-type);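 for Bottom (best-fit value): normalized to the maximal wild-type response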;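 for Bottom (best-fit): normalized to the maximal wild-type response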;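 for Span (best-fit value), cAMP inhibition: normalized to the maximal wild-type response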;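 for Span (best-fit value): normalized to the maximal wild-type response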;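 for Span (best-fit): normalized to the maximal wild-type response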;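 for Span: normalized to the maximal wild-type response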;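 for Top (best-fit): normalized to the maximal wild-type response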
Type: cell-based
Parameters: Best-fit Top, cAMP inhibition / Span, cAMP inhibition / Best-fit Bottom / Best-fit Top / Best-fit Span / Bottom / Span (best-fit value), cAMP inhibition / Top (best-fit value), cAMP inhibition: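 normalized to the maximal wild-type response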
Conditions: for Span / Top: best-fit, runs 1-3
Description: The levels of the intracellular 3′, 5′-cyclic AMP (cAMP) were measured by the GloSensor cAMP assay (Promega) as described in the previous studies[28],[41] which has been widely used. The human full-length SSTRs and mutants were cloned into the pcDNA3.1+ vector with a HA signal sequence followed by a Flag tag at the N-terminus. HEK293 cells (ATCC, CRL-1573) were seeded into 6-well microplates at a density of 1.0 × 10^6 cells/well and cultured for 24 h at 37 °C with 5% CO2. Cells were then co-transfected with SSTR wild-type or mutants and GloSensor plasmids. After 24 h of transfection, the cells were dissociated with TrypLE™ Express Enzyme (1X) (Thermo Fisher Scientific) and collected by centrifugation at 500 × g for 5 min. Then the collected cells were suspended in Hank’s balanced salt solution [HBSS (Thermo Fisher Scientific)] supplemented with […] (YEASEN), and then the suspension cells were seeded into 96-well plates with 90 μl/well. After incubating at room temperature for 40 min, 5 μM forskolin and ligands diluted in HBSS were added to each well and the plates were incubated at room temperature for 15 min. […] were measured using the Synergy H1 microplate reader (BioTek) and the data presented are means of at least three independent experiments.

[1] = WT-1 (run 1 of each mutant's batch)

SSTR2, sequence (P30874 whole entry): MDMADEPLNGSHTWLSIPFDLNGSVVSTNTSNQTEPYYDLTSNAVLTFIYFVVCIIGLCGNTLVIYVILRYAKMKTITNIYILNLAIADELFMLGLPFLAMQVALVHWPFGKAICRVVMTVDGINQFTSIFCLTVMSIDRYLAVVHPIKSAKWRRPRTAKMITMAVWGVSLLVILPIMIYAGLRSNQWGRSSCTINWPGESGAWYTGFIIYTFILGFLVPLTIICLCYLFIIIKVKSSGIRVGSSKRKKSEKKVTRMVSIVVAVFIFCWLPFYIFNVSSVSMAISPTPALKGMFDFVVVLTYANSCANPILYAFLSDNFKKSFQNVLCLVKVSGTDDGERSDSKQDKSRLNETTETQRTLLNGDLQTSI

For `N#Cc1cccc(-c2ccc3ncc(-c4cc(F)cc(F)c4)c(N4CCC(N)CC4)c3c2)c1O` [paltusotine], the EC50 (EC50, Gi signaling, SSTR2 WT, n=6) was 1.88 ± 3.15 nM, the EC50 (EC50, WT-1, run paired with D295F) was 0.307 nM and the EC50 (EC50, WT-1, run paired with F294Y) was 0.307 nM. For the same compound, the EC50 (EC50, WT-1, run paired with I195M) was 1.09 nM, the EC50 (EC50, WT-1, run paired with T194H) was 1.16 nM and the EC50 (EC50, WT-1, run paired with V103N) was 2.1 nM. It also gave an EC50 (EC50, WT-1, run paired with Y205R) of 0.537 nM, an EC50 (EC50, WT-2, run paired with D295F) of 0.501 nM and an EC50 (EC50, WT-2, run paired with F294Y) of 0.501 nM. It also gave an EC50 (EC50, WT-2, run paired with I195M) of 2.02 nM, an EC50 (EC50, WT-2, run paired with T194H) of 1.6 nM and an EC50 (EC50, WT-2, run paired with V103N) of 1.35 nM. The EC50 (EC50, WT-2, run paired with Y205R) was 0.536 nM, the EC50 (EC50, WT-3, run paired with D295F) was 1.09 nM and the EC50 (EC50, WT-3, run paired with F294Y) was 1.16 nM. It also gave an EC50 (EC50, WT-3, run paired with T194H) of 1.35 nM, an EC50 (EC50, WT-3, run paired with V103N) of 1.08 nM and an EC50 (EC50, WT-3, run paired with Y205R) of 2.1 nM. The EC50 (EC50, cAMP inhibition best-fit, D122A set, WT-1) was 2.35 nM, the EC50 (EC50, cAMP inhibition best-fit, D122A set, WT-2) was 2.66 nM and the EC50 (EC50, cAMP inhibition best-fit, D122A set, WT-3) was 0.501 nM. It also gave an EC50 (EC50, cAMP inhibition best-fit, F127A set, WT-1) of 1.55 nM, an EC50 (EC50, cAMP inhibition best-fit, F127A set, WT-2) of 1.16 nM and an EC50 (EC50, cAMP inhibition best-fit, F127A set, WT-3) of 0.298 nM. It also gave an EC50 (EC50, cAMP inhibition best-fit, I130A set, WT-1) of 0.295 nM, an EC50 (EC50, cAMP inhibition best-fit, I130A set, WT-2) of 0.321 nM and an EC50 (EC50, cAMP inhibition best-fit, I130A set, WT-3) of 1.13 nM. The EC50 (EC50, cAMP inhibition best-fit, Q102A set, WT-2) was 1.19 nM, the EC50 (EC50, cAMP inhibition best-fit, Q102A set, WT-3) was 1 nM and the EC50 (EC50, cAMP inhibition best-fit, Q126A set, WT-1) was 0.777 nM. The EC50 (EC50, cAMP inhibition best-fit, Q126A set, WT-2) was 1.58 nM, the EC50 (EC50, cAMP inhibition best-fit, Q126A set, WT-3) was 0.845 nM and the EC50 (EC50, cAMP inhibition best-fit, V103A set, WT-1) was 1.58 nM. The EC50 (EC50, cAMP inhibition best-fit, V103A set, WT-2) was 0.605 nM, the EC50 (EC50, cAMP inhibition best-fit, V103A set, WT-3) was 1.19 nM and the EC50 (EC50, subtype selectivity series, Suppl. Tables 4/5, SSTR2-WT, n=6) was 2.08 ± 1.39 nM. For the same compound, the “Bottom (best-fit value)” value (F208A panel, WT-1 (run 1)) was -1.411, the “LogEC50 (best-fit value)” value (F208A panel, WT-1 (run 1)) was -9.3 and the “Span (best-fit value)” value (F208A panel, WT-1 (run 1)) was 105.2. The “Top (best-fit value)” value (F208A panel, WT-1 (run 1)) was 103.8, the “Bottom (best-fit value)” value (F208A panel, WT-2 (run 2)) was 4.431 and the “LogEC50 (best-fit value)” value (F208A panel, WT-2 (run 2)) was -8.26. The “Span (best-fit value)” value (F208A panel, WT-2 (run 2)) was 92.56, the “Top (best-fit value)” value (F208A panel, WT-2 (run 2)) was 96.99 and the “Bottom (best-fit value)” value (F208A panel, WT-3 (run 3)) was 0.6589. For the same compound, the “LogEC50 (best-fit value)” value (F208A panel, WT-3 (run 3)) was -8.524, the “Span (best-fit value)” value (F208A panel, WT-3 (run 3)) was 92.36 and the “Top (best-fit value)” value (F208A panel, WT-3 (run 3)) was 93.02. The “Bottom (best-fit value)” value (F265A panel, WT-1 (run 1)) was -3.016, the “LogEC50 (best-fit value)” value (F265A panel, WT-1 (run 1)) was -8.949 and the “Span (best-fit value)” value (F265A panel, WT-1 (run 1)) was 106.8. The “Top (best-fit value)” value (F265A panel, WT-1 (run 1)) was 103.7, the “Bottom (best-fit value)” value (F265A panel, WT-2 (run 2)) was -3.466 and the “LogEC50 (best-fit value)” value (F265A panel, WT-2 (run 2)) was -9.53. For the same compound, the “Span (best-fit value)” value (F265A panel, WT-2 (run 2)) was 116.5, the “Top (best-fit value)” value (F265A panel, WT-2 (run 2)) was 113 and the “Bottom (best-fit value)” value (F265A panel, WT-3 (run 3)) was -6.932. The “LogEC50 (best-fit value)” value (F265A panel, WT-3 (run 3)) was -9.494, the “Span (best-fit value)” value (F265A panel, WT-3 (run 3)) was 126.2 and the “Top (best-fit value)” value (F265A panel, WT-3 (run 3)) was 119.3. The “Bottom (best-fit value)” value (F272A panel, WT-1 (run 1)) was -5.769, the “Top (best-fit value)” value (F272A panel, WT-1 (run 1)) was 108 and the “Bottom (best-fit value)” value (F272A panel, WT-2 (run 2)) was -4.038. For the same compound, the “Top (best-fit value)” value (F272A panel, WT-2 (run 2)) was 107.8, the “Bottom (best-fit value)” value (F272A panel, WT-3 (run 3)) was -0.5501 and the “Top (best-fit value)” value (F272A panel, WT-3 (run 3)) was 106.1. For the same compound, the “Fold of WT” value (Gi signaling EC50, SSTR2 WT) was 1, the Emax (HEK293) was 100% and the “Bottom (best-fit value)” value (P220A panel, WT-1 (run 1)) was -3.466. The “LogEC50 (best-fit value)” value (P220A panel, WT-1 (run 1)) was -9.53, the “Span (best-fit value)” value (P220A panel, WT-1 (run 1)) was 116.5 and the “Top (best-fit value)” value (P220A panel, WT-1 (run 1)) was 113. The “Bottom (best-fit value)” value (P220A panel, WT-2 (run 2)) was -6.932, the “LogEC50 (best-fit value)” value (P220A panel, WT-2 (run 2)) was -9.494 and the “Span (best-fit value)” value (P220A panel, WT-2 (run 2)) was 126.2. The “Top (best-fit value)” value (P220A panel, WT-2 (run 2)) was 119.3, the “Bottom (best-fit value)” value (P220A panel, WT-3 (run 3)) was -3.016 and the “LogEC50 (best-fit value)” value (P220A panel, WT-3 (run 3)) was -8.949. For the same compound, the “Span (best-fit value)” value (P220A panel, WT-3 (run 3)) was 106.8, the “Top (best-fit value)” value (P220A panel, WT-3 (run 3)) was 103.7 and the Activation potency level (SSTR2, Fig. 1) was “nanomolar level”. For the same compound, the “Fold of WT” value (Suppl. Tables 4/5, SSTR2-WT) was 1.00, the “Bottom (best-fit value)” value (W269A panel, WT-1 (run 1)) was -3.016 and the “LogEC50 (best-fit value)” value (W269A panel, WT-1 (run 1)) was -8.949. For the same compound, the “Span (best-fit value)” value (W269A panel, WT-1 (run 1)) was 106.8, the “Top (best-fit value)” value (W269A panel, WT-1 (run 1)) was 103.7 and the “Bottom (best-fit value)” value (W269A panel, WT-2 (run 2)) was -3.466. For the same compound, the “LogEC50 (best-fit value)” value (W269A panel, WT-2 (run 2)) was -9.53, the “Span (best-fit value)” value (W269A panel, WT-2 (run 2)) was 116.5 and the “Top (best-fit value)” value (W269A panel, WT-2 (run 2)) was 113. The “Bottom (best-fit value)” value (W269A panel, WT-3 (run 3)) was -6.932, the “LogEC50 (best-fit value)” value (W269A panel, WT-3 (run 3)) was -9.494 and the “Span (best-fit value)” value (W269A panel, WT-3 (run 3)) was 126.2. The “Top (best-fit value)” value (W269A panel, WT-3 (run 3)) was 119.3, the Span (WT (I195A set)) was 93.39 and 87.67 and 121.7 and the Top (WT (I195A set)) was 108 and 99.03 and 119.3. It also gave a LogEC50 (WT (I195A set), run 1, best-fit) of -8.654, a LogEC50 (WT (I195A set), run 2, best-fit) of -8.922 and a LogEC50 (WT (I195A set), run 3, best-fit) of -8.801. For the same compound, the Span (WT (I284A set)) was 107.7 and 93.27 and 111.5, the Top (WT (I284A set)) was 108.3 and 104.9 and 129.6 and the LogEC50 (WT (I284A set), run 1, best-fit) was -8.585. The LogEC50 (WT (I284A set), run 2, best-fit) was -8.622, the LogEC50 (WT (I284A set), run 3, best-fit) was -8.252 and the Span (WT (L99A set)) was 106.7 and 113.8 and 111.8. The Top (WT (L99A set)) was 106.1 and 108 and 107.8, the LogEC50 (WT (L99A set), run 1, best-fit) was -8.998 and the LogEC50 (WT (L99A set), run 2, best-fit) was -8.575. The LogEC50 (WT (L99A set), run 3, best-fit) was -8.63, the Span (WT (T194A set)) was 106.7 and 111.2 and 111 and the Top (WT (T194A set)) was 106.1 and 108.7 and 106.2. The LogEC50 (WT (T194A set), run 1, best-fit) was -8.998, the LogEC50 (WT (T194A set), run 2, best-fit) was -8.908 and the LogEC50 (WT (T194A set), run 3, best-fit) was -8.937. For the same compound, the Span (WT (Y50A set)) was 113.7 and 115.8 and 115.1, the Top (WT (Y50A set)) was 113.6 and 115.8 and 115.7 and the LogEC50 (WT (Y50A set), run 1, best-fit) was -8.071. The LogEC50 (WT (Y50A set), run 2, best-fit) was -8.114, the LogEC50 (WT (Y50A set), run 3, best-fit) was -8.128 and the “Span (best-fit value), cAMP inhibition” value [1] was 113.8 and 111.2 and 111.8 and 104.8 and 106.7. For the same compound, the “Top (best-fit value), cAMP inhibition” value [1] was 108.7 and 107.8 and 108 and 105.3 and 106.1, the “Bottom (best-fit)” value (WT-1, run paired with D295F) was 3.567 and the LogEC50 (WT-1, run paired with D295F) was -9.512. The “Span (best-fit)” value (WT-1, run paired with D295F) was 103.1, the “Top (best-fit)” value (WT-1, run paired with D295F) was 106.7 and the “Bottom (best-fit)” value (WT-1, run paired with F294Y) was 3.567. The LogEC50 (WT-1, run paired with F294Y) was -9.512, the “Span (best-fit)” value (WT-1, run paired with F294Y) was 103.1 and the “Top (best-fit)” value (WT-1, run paired with F294Y) was 106.7. For the same compound, the “Bottom (best-fit)” value (WT-1, run paired with I195M) was 12.84, the LogEC50 (WT-1, run paired with I195M) was -8.964 and the “Span (best-fit)” value (WT-1, run paired with I195M) was 85.7. The “Top (best-fit)” value (WT-1, run paired with I195M) was 98.54, the “Bottom (best-fit)” value (WT-1, run paired with T194H) was -4.818 and the LogEC50 (WT-1, run paired with T194H) was -8.937.
